Experimental data from US20220175798A1, “COMPOSITIONS COMPRISING OXYGENATED CHOLESTEROL SULFATE AND AT LEAST ONE OF POLYALKYLENE GLYCOL, CARBOXYMETHYL CELLULOSE AND POLYOXYLGLYCERIDE” (Durect Corporation, priority 2016, published 2022).

Tests used:
[1] = test system: APAP-induced liver failure; experiment: Acetaminophen (APAP)-induced model of acute liver failure; assay type: in vivo, C57BL/6J mice; settings: 25 mg/kg oral gavage 1 hr (and 24 hr) post APAP 300 mg/kg; vs vehicle
Experimental: The subjects for the study were 52 C57BL/6J male mice (12 weeks of age; 27.4-40 g). […] All animals were in healthy condition and admitted to the study.
(§1) The Vehicle was a solution of 0.5% (w/v) CMC and 0.05% (v/v) Tween-80 in water. Powdered 25HC3 S was constituted into the vehicle solution to result in a drug concentration of 3 mg/mL. The suspensions were homogenized at 20,000 rotations per minute (rpm) for approximately 5 minutes after being combined, with 10 second breaks every 30-40 seconds and swirled before dosing to maintain homogeneity. The formulated test article was prepared weekly and kept at room temperature.
Two groups of mice (N=14/group) were challenged with 300 mg/kg APAP by oral gavage. The two groups were treated with one dose of vehicle or 25HC3 S (25 mg/kg) by oral gavage at a dose volume of 8.33 mL/kg one hour post-APAP challenge. Half of the mice in each group (N=6-7/group) were given a second dose of vehicle or 25HC3 S (25 mg/kg) at 24 hour post-APAP delivery in addition to the first dose at 1 hr. Cohort A mice (single dose) were sacrificed 24 hrs post APAP-challenge and Cohort B mice (two doses) were sacrificed at 48 hours post APAP-challenge. A parallel set of untreated age-matched mice (no APAP and vehicle administered by oral gavage) were also sacrificed at both time points to compare baseline measurements (N=6/time point; 12 in total). […]

[2] = test system: high fat diet (HFD)-fed hamsters; experiment: Pharmacodynamic study in HFD-fed Golden Syrian hamsters (serum chemistry, hepatic lipids, histopathology); assay type: in vivo
Text: The subjects for the study were 40 Golden Syrian male hamsters. Two cohorts were provided with either regular diet (RD) or high fat diet (HFD) for 10 weeks. 25HC3 S treatment was initiated at the start of Week 11. Group 1 remained on a regular diet while HFD-fed hamsters were randomly divided into three treatment groups (Groups 2-4; Table 20).
as §1, with “in” for “in a”, “drug concentrations” for “drug concentration”, “of 2.5 and 10” for “of 3”, “homogenized” for “homogenized at 20,000 rotations per minute (rpm)”, “minutes” for “minutes after”
Hamsters were treated with 25HC3 S by daily oral gavage for 6 weeks while maintained on RD or HFD. Each hamster received daily doses of 25HC3S or vehicle by oral gavage (N=10/group). There were two dose groups (Groups 3 and 4): 10 and 50 mg/kg, as specified in Table 20, with dose volumes of 4 and 5 mL/kg, respectively.
For pharmacodynamic measures of efficacy, clinical chemistry parameters were measured by collection of fasting serum throughout the study to assess the effects of HFD and 25HC3S treatment compared to animals on a RD and given the vehicle control.
Assessments included, but were not limited to, assessment of activity, posture, respiration, emesis, seizure, hydration status, injection site assessment and overall body condition. At the end of the in-life portion of the study (Week 16), all animals were sacrificed and livers collected for biochemical and histopathology analyses.

[3] = Homogeneity and content uniformity of 25HC3S suspension by HPLC; assay type: physicochemical
Experimental: The HPLC technique involved reverse phase HPLC for measuring the concentration of 25HC3 S in the solubility samples.
Weigh 80 mg of 25HC3S (Lot #B, Passed through 20 mesh screen and Jet-milled, 3rd pass) into a 10 mL vial. Add to the vial, 8 mL of Vehicle PEG 3350 (with 0.15% L-Methionine and 0.9% NaCl). […] A total of 9 samples were dispensed using 1 mL BD syringes attached to 20G1″ or 25G⅝″ Terumo UTW needles for homogeneity analysis by HPLC (Study #14) and stability study (Study #17).
Weigh 50 and 80 mg of 25HC3S into 2 and 10 mL vials, respectively. Add to the vial, 2 mL and 8 mL of Vehicle PEG 3350 with L-Methionine. […] The vial was inverted 10 times prior to dispensing 0.2 or 0.9 mL into volumetric flasks for methanol dilution for HPLC analysis (total 8 and 7 samples, respectively for HPLC analysis for potency and stability (Study #15).
Weighed approximately 125 mg each of 25HC3S (Lot #C, jet milled and passed through a 20 mesh screen) into a 10 mL vial. Added to vial, 5 mL of Vehicle PEG 3350 without L-Methionine. The vial was placed horizontally in a flat bed shaker, shaken at 100 rpm for up 45 minutes (Mixing Method 4). There were some small wet lumps stuck to the wall and bottom of the glass vial.
Weigh 87 mg of 25HC3S (Lot #C, Jet milled and then pass 20 mesh screen) into a 5-mL vial. Add to the vial 3 mL Vehicle PEG 3350 (without L-methionine and with 0.75% NaCl). […] Weigh another approximately and accurately 90 mg each of 25HC3S (Lot #D and Lot #B, micronized, one pass) into 3 separate 10 mL vials with 3 mL of Vehicle PEG 3350. The vials were placed in a flat bed shaker at 200 rpm for 45 minutes (Mixing Method 4). […] A second set of samples was prepared likewise from the same 3 vials except using 1 mL BD syringe attached to a 27G½″ needle. The homogeneity was determined (Study #19).

[4] = HFD-fed hamsters, Group 3, 10 mg/kg daily oral gavage 6 weeks
[5] = HFD-fed hamsters, Group 4, 50 mg/kg daily oral gavage 6 weeks

Compound: C[C@H](CCCC(C)(C)O)[C@H]1CC[C@H]2[C@@H]3CC=C4C[C@@H](OS(=O)(=O)[O-])CC[C@]4(C)[C@H]3CC[C@]12C.[Na+] [Formulation 25HC3S, 5-cholesten-3, 25-diol, 3-sulfate]
- serum chemistry parameters (ALT, AST, ALK, LDH, BUN, glucose) [1]: no effect
- hepatic cholesterol levels ([2]; 10 mg/kg, 6 weeks): no effect
- hepatic cholesterol levels ([2]; 50 mg/kg (Group 4), 6 weeks): significantly reduced
- reduction in serum cholesterol levels ([2]; 50 mg/kg (Group 4), 6 weeks of treatment (Week 16), not statistically significant): 15-18%
- HFD-related liver weight gain ([2]; 6 weeks of treatment): no statistically significant effect
- HDL and LDL cholesterol ([2]; 6 weeks of treatment, HFD-fed hamsters): reduced both HDL and LDL cholesterol in a dose-dependent fashion
- ALT and AST levels ([2]; 6 weeks of treatment, compared to vehicle): reduced both ALT and AST levels
- incidence of “normal-appearing” livers at gross necropsy ([2]; Group 4 (50 mg/kg)): 22%
- Hepatic Free Fatty Acids [2, 4]: 7.3 (±0.6) Meg/mg protein
- Hepatic Total Cholesterol [2, 4]: 155.5 (±37.9) μg/mg protein
- Hepatic Triglyceride [2, 4]: 66.1 (±23.3) μg/mg protein
- Hepatic Free Fatty Acids [2, 5]: 6.6 (±1.4) Meg/mg protein
- Hepatic Triglyceride [2, 5]: 46.4 (±15.6) μg/mg protein
- Hepatic Total Cholesterol ([2]; HFD-fed hamsters, Group 4, 50 mg/kg daily oral gavage 6 weeks, p < 0.05 compared to Group 2): 75.2 (±45.7) μg/mg protein
- clinical signs ([2]; PO daily for 6 weeks, hamsters): did not result in any notable clinical signs
- liver histopathology (H&E and Oil Red O) ([2]; dose-dependent, compared to HFD-fed control (Group 2)): considerably less microvesicular changes, reduced Oil Red 0 staining, and milder inflammation
- serum triglyceride levels ([2]; treated groups vs vehicle across 6 weeks, not statistically significant): trending higher
- hepatic triglyceride levels ([2]; with increasing dosage, 6 weeks, did not reach statistical significance): Reduced
- homogeneity ([3]; 10 mg/mL in Vehicle PEG 3350 (with 0.15% L-Methionine), n=7, 0.9 mL each, Study #15): 100.5-103.1 % LS
- homogeneity ([3]; 10 mg/mL suspension in Vehicle PEG 3350 (0.15% L-Methionine, 0.9% NaCl), Lot #B jet-milled 3rd pass, n=9, Study #14): 94.3-98.1 % LS
- homogeneity ([3]; 25 mg/mL in Vehicle PEG 3350 (with 0.15% L-Methionine), n=8, 0.2 mL each, Study #15): 96.2-109.4 % LS
- homogeneity (and content uniformity) ([3]; final improved formulation 25 mg/mL (Study #19)): 89.3-105.9 % label strength
